Data set [1] can be described thus: PK following bolus and 2-hr continuous SC administration of 30% LD-Tyr (Example 18). Type of data set: in vivo, domestic pig. The following applies: pig; for AUC(0-t) / Cmax / Tmax: female, plasma, sc, analyte LD-Tyr, 30/1 % w/v, bolus and 2-hr continuous SC administration. Here is the method:
A series of PK and local-tox studies was completed in domestic pigs using several concentrations LD-Tyr formulations comprising varying amounts of CD, as detailed in Table 42, and dosing regimens, as detailed in Table 43. […] Each formulation was administered at one infusion site per animal using a Crono-ND infusion pump (Canè SpA Medical Technology, Rivoli, Italy) connected to an infusion set (Accu-chek®, FlexLink, Roche).
Blood samples for the determination of LD-Tyr and LD plasma levels were collected from the pigs at the following timepoints:
0 (pre-dose), 10 min (end of bolus), 15 min, 30 min, 45 min, 60 min, 75 min, 90 min, 120 min and 240 min following the beginning of the bolus administration.

In another data set the test system is Pig/domestic. The experiment in a line: Local infusion site reaction as part of a PK study (ND 2-20-102). Format: in vivo. The following applies: study ND 2-20-102, 200 mg/mL at 9 mL (1800 mg/day). Here is the method: In vivo non-clinical safety studies were conducted in both the rat and minipig. Additionally, an assessment of the local infusion site reaction of LD-Tyr was performed as part of a PK study in domestic pigs.

The mark [2] stands for this setting: bolus volume 0.7 mL, bolus dose 210/7 mg, daily dose 510/17 mg.
Setting [3] is: bolus volume 1.2 mL, bolus dose 360/12 mg, daily dose 660/22 mg.
The mark [4] stands for this setting: bolus volume 1.7 mL, bolus dose 510/17 mg, daily dose 810/27 mg.

Where a SMILES comes first, the peptide text is derived from it. [ ]: non-standard residue; d: D form. Dopa = N[C@@H](Cc1ccc(O)c(O)c1)C(=O)O

By AUC(0-t) is commonly meant exposure summed from dosing to a finite time, without extrapolation to infinity. Higher therefore signals more exposure. The term Cmax denotes the maximum level reached in the sampled fluid or tissue. The term Tmax denotes the time from dosing to the highest level. For the molecule `N[C@@H](Cc1ccc(O)c(O)c1)C(=O)N[C@@H](Cc1ccc(O)cc1)C(=O)O` [LD-Tyr, levodopa-tyrosine (LD-Tyr) conjugate of the formula (II)] (H-[Dopa]-Tyr-OH), the results for the AUC(0-t) in data set [1] (setting [2]), in data set [1] (setting [3]) and in data set [1] (setting [4]) were 1180 ng·h/mL, 1630 ng·h/mL and 2430 ng·h/mL, respectively. Besides, the highest concentration (Cmax) in data set [1] (setting [2]) was 573 ng/mL; in data set [1] (setting [3]), 933 ng/mL; in data set [1] (setting [4]), 1350 ng/mL. Besides, the figures for the Tmax in data set [1] (setting [2]), in data set [1] (setting [3]) and in data set [1] (setting [4]) were 1.3 h, 0.9 h and 1.2 h, respectively. Moreover, the “systemic exposure to LD versus bolus injection volume” value in data set [1] (in vivo) is “dose-proportional increase”. Also, in the data set on Pig/domestic, the “subacute inflammation in the subcutis” value is on record as “minimal to mild”.

The record behind these values is patent US20240207410A1, “STABILIZED LIQUID COMPOSITIONS COMPRISING A LEVODOPA-TYROSINE CONJUGATE AND USES THEREOF” (NeuroDerm, Ltd., priority 2021, published 2024).
